Data: US20120214822A1 (ASTRAZENECA AB, priority 2007, published 2012)
Counter-ions that a name gives are not always drawn.

Target: human active recombinant p38α-6His tagged (Homo sapiens, UniProt Q16539)
Assay: P38 Alpha Enzyme Assay (AlphaScreen, biotinylated-ATF2 substrate);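 note: 0.5 nM final p38α, reaction started with ATP and run 45 min at 37 °C, phospho-ATF2 read by antibody-based AlphaScreen, background wells quenched with EDTA before ATP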
Type: biochemical
Settings: p38 alpha enzyme inhibition; means of replicate determinations; 4 h pre-incubation at 37° C.; SD of assay 0.2-0.3 log units

Chain of human active recombinant p38α-6His tagged (Q16539 whole entry): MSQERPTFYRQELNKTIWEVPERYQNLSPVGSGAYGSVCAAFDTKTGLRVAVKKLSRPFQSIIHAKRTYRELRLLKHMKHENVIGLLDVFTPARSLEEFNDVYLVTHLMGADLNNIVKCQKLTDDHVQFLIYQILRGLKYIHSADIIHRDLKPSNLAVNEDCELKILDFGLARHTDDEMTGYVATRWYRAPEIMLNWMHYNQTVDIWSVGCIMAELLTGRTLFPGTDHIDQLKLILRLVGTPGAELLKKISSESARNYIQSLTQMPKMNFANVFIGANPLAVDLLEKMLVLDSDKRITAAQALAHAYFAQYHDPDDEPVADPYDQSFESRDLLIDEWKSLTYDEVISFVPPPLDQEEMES

Row | SMILES | pIC50
1 | Cc1ccc(C(=O)NC2CC2)cc1-n1ccnc(NCc2cccc(F)c2)c1=O [Example 22, N-Cyclopropyl-3-[3-[[(3-fluorophenyl)methyl]amino]-2-oxo-1(2H)-pyrazinyl]-4-methyl-benzamide] | 7
2 | Cc1ccc(C(=O)NC2CC2)cc1-n1cc(CN(C)C)nc(NCc2ccccc2)c1=O [Example 105, N-Cyclopropyl-3-[5-[(dimethylamino)methyl]-2-oxo-3-[(phenylmethyl)amino]-1(2H)-pyrazinyl]-4-methyl-benzamide] | 6.2
3 | Cc1ccc(C(=O)NC2CC2)cc1-n1ccnc(N[C@@H](c2ccccc2)[C@@H](C)CNC2CC2)c1=O [Example 183, N-Cyclopropyl-3-[3-[[(1R,2S)-3-(cyclopropylamino)-2-methyl-1-phenylpropyl]amino]-2-oxo-1(2H)-pyrazinyl]-4-methyl-benzamide] | 9
4 | Cc1cccc(C2CCCCN2c2nccn(-c3cc(C(=O)NC4CC4)ccc3C)c2=O)c1 (stereo not shown) [Example 94, N-Cyclopropyl-4-methyl-3-[3-[2-(3-methylphenyl)-1-pipendinyl]-2-oxo-1(2H)-pyrazinyl]-benzamide] | 7.5
5 | Cc1ccc(C(=O)NC2CC2)cc1-n1ccnc(NCc2ccccc2F)c1=O [Example 1, N-Cyclopropyl-3-[3-(2-fluoro-benzylamino)-2-oxo-2H-pyrazin-1-yl]-4-methyl-benzamide] | 7.4
6 | Cc1ccc(C(=O)NC2CC2)cc1-n1ccnc(N[C@@H](c2ccccc2)[C@@H](C)CNCCN(C)C)c1=O [Example 155, N-Cyclopropyl-3-[3-[[(1R,2S)-3-[[2-(dimethylamino)ethyl]amino]-2-methyl-1-phenylpropyl]amino]-2-oxo-1(2H)-pyrazinyl]-4-methyl-benzamide] | 9.1
7 | Cc1ccc(C(=O)NC2CC2)cc1-n1ccnc(N2CCCCC2)c1=O [Example 76, N-Cyclopropyl-4-methyl-3-[2-oxo-3-(1-pipendinyl)-1(2H)-pyrazinyl]-benzamide] | 6.8
8 | Cc1ccc(C(=O)NC2CC2)cc1-n1ccnc(NC2Cc3ccccc3C2)c1=O [Example 64, N-Cyclopropyl-3-[3-[(2,3-dihydro-1H-inden-2-yl)amino]-2-oxo-1(2H)-pyrazinyl]-4-methyl-benzamide] | 6.8
9 | Cc1ccc(C(=O)NC2CC2)cc1-n1ccnc(N2CCN(C)CC2c2ccccc2)c1=O (stereo not shown) [Example 119, N-Cyclopropyl-4-methyl-3-[3-(4-methyl-2-phenyl-1-piperazinyl)-2-oxo-1(2H)-pyrazinyl]-benzamide] | 6.6
10 | Cc1ccc(C(=O)NC2CC2)cc1-n1ccnc(N2CCNC(c3ccccc3)C2)c1=O (stereo not shown) [Example 53, N-Cyclopropyl-4-methyl-3-[2-oxo-3-(3-phenyl-1-piperazinyl)-1(2H)-pyrazinyl]-benzamide] | 7.4
11 | Cc1ccc(C(=O)NC2CC2)cc1-n1ccnc(NCc2ccccc2C(F)(F)F)c1=O [Example 79, N-Cyclopropyl-4-methyl-3-[2-oxo-3-[[[2-(trifluoromethyl)phenyl]methyl]amino]-1(2H)-pyrazinyl]-benzamide] | 7.7
12 | CONC(=O)c1ccc(C)c(-n2ccnc(N[C@@H](c3cccc4ccccc34)[C@@H](C)CN3CCOCC3)c2=O)c1 [Example 161, N-Methoxy-4-methyl-3-[3-[[(1R,2S)-2-methyl-3-(4-morpholinyl)-1-(1-naphthalenyl)propyl]amino]-2-oxo-1(2H)-pyrazinyl]-benzamide] | 9.2
13 | Cc1ccc(C(=O)NC2CC2)cc1-n1ccnc(N[C@@H](c2ccccc2)C2CCNCC2)c1=O [Example 101, N-Cyclopropyl-4-methyl-3-[2-oxo-3-[[(R)-phenyl-4-piperidinylmethyl]amino]-1(2H)-pyrazinyl]-benzamide, trifluoroacetate] | 7.4
14 | Cc1ccc(C(=O)NC2CC2)cc1-n1ccnc(N[C@@H](c2ccccc2)[C@@H](C)CN(C)C(C)(C)C)c1=O [Example 154, N-Cyclopropyl-3-[3-[[(1R,2S)-3-[(1,1-dimethylethyl)methylamino]-2-methyl-1-phenylpropyl]amino]-2-oxo-1(2H)-pyrazinyl]-4-methyl-benzamide] | 9
15 | CONC(=O)c1ccc(C)c(-n2ccnc(N[C@@H](c3cccc4ccccc34)[C@@H](C)CN3CCCC3)c2=O)c1 [Example 158, N-Methoxy-4-methyl-3-[3-[[(1R,2S)-2-methyl-1-(1-naphthalenyl)-3-(1-pyrrolidinyl)propyl]amino]-2-oxo-1(2H)-pyrazinyl]-benzamide] | 9

Further lines, results first:

Row | pIC50 | SMILES
16 | 9.6 | Cc1ccc(C(=O)NC2CC2)cc1-n1ccnc(NC(C)(C)c2ccccc2OCCNCCO)c1=O [Example 211, N-Cyclopropyl-3-[3-[[1-[2-[2-[(2-hydroxyethyl)amino]ethoxy]phenyl]-1-methylethyl]amino]-2-oxo-1(2H)-pyrazinyl]-4-methyl-benzamide]
17 | 9.5 | Cc1ccc(C(=O)NC2CC2)cc1-n1ccnc(NC2(c3ccccc3OCCN[C@@H](CO)C(C)C)CC2)c1=O [Example 293, N-Cyclopropyl-3-[3-({1-[2-(2-{[(1R)-1-(hydroxymethyl)-2-methylpropyl]amino}ethoxy)phenyl]cyclopropyl}amino)-2-oxopyrazin-1(2H)-yl]-4-methylbenzamide]
18 | 10.3 | Cc1c(F)cc(C(=O)NC2CC2)cc1-n1ccnc(NC2(c3ccccc3OCCNCCO)CC2)c1=O [Example 260, N-Cyclopropyl-3-fluoro-5-[3-[[1-[2-[2-[(2-hydroxyethyl)amino]ethoxy]phenyl]cyclopropyl]amino]-2-oxo-1(2H)-pyrazinyl]-4-methyl-benzamide]
19 | 10 | Cc1c(F)cc(C(=O)NC2CC2)cc1-n1ccnc(NC2(c3ccccc3OCCN(C)CCO)CC2)c1=O [Example 315, N-Cyclopropyl-3-fluoro-5-[3-{[1-(2-{2-[(2-hydroxyethyl)(methyl)amino]ethoxy}phenyl)cyclopropyl]amino}-2-oxopyrazin-1(2H)-yl]-4-methylbenzamide]
20 | 9 | Cc1ccc(C(=O)NC2CC2)cc1-n1ccnc(N[C@@H](c2ccccc2)[C@@H](C)CN2CCCC2(C)C)c1=O [Example 197, N-Cyclopropyl-3-[3-[[(1R,2S)-3-(2,2-dimethyl-1-pyrrolidinyl)-2-methyl-1-phenylpropyl]amino]-2-oxo-1(2H)-pyrazinyl]-4-methyl-benzamide]
21 | 9.5 | CNCCSc1ccccc1C(C)(C)Nc1nccn(-c2cc(C(=O)NC3CC3)cc(F)c2C)c1=O [Example 320, N-Cyclopropyl-3-fluoro-4-methyl-5-[3-{[1-methyl-1-(2-{[2-(methylamino)ethyl]sulfanyl}phenyl)ethyl]amino}-2-oxopyrazin-1(2H)-yl]benzamide]
22 | 9.7 | Cc1c(F)cc(C(=O)NC2CC2)cc1-n1ccnc(NC(C)(C)c2ccccc2SCCN)c1=O [Example 321, 3-{3-[(1-{2-[(2-Aminoethyl)sulfanyl]phenyl}-1-methylethyl)amino]-2-oxopyrazin-1(2H)-yl}-N-cyclopropyl-5-fluoro-4-methylbenzamide]
23 | 9.3 | Cc1ccc(C(=O)NC2CC2)cc1-n1ccnc(N[C@@H](c2ccccc2)[C@@H](C)CNC(C)(C)CO)c1=O [Example 193, N-Cyclopropyl-3-[3-[[(1R,2S)-3-[(2-hydroxy-1,1-dimethylethyl)amino]-2-methyl-1-phenylpropyl]amino]-2-oxo-1(2H)-pyrazinyl]-4-methyl-benzamide]
24 | 10.1 | Cc1ccc(C(=O)NC2CC2)cc1-n1ccnc(NC2(c3cc(F)ccc3OCCNCCO)CC2)c1=O [Example 279, N-Cyclopropyl-3-[3-[[1-[5-fluoro-2-[2-[(2-hydroxyethyl)amino]ethoxy]phenyl]cyclopropyl]amino]-2-oxo-1(2H)-pyrazinyl]-4-methyl-benzamide]
25 | 10.2 | Cc1c(F)cc(C(=O)NC2CC2)cc1-n1ccnc(NC(C)(C)c2ccccc2OCCNC(C)C)c1=O [Example 254, N-Cyclopropyl-3-fluoro-4-methyl-5-[3-[[1-methyl-1-[2-[2-[(1-methylethyl)amino]ethoxy]phenyl]ethyl]amino]-2-oxo-1(2H)-pyrazinyl]-benamide]
26 | 10.3 | Cc1c(F)cc(C(=O)NC2CC2)cc1-n1ccnc(NC(C)(C)c2ccccc2OCCNCC(C)(C)O)c1=O [Example 257, N-Cyclopropyl-3-fluoro-5-[3-[[1-[2-[2-[(2-hydroxy-2-methylpropyl)amino]ethoxy]phenyl]-1-methylethyl]amino]-2-oxo-1(2H)-pyrazinyl]-4-methyl-benzamide]
27 | 10 | Cc1ccc(C(=O)NC2CC2)cc1-n1ccnc(NC2(c3ccccc3OC[C@H](O)CNCCO)CC2)c1=O [Example 299, N-Cyclopropyl-3-[3-({1-[2-({(2R)-2-hydroxy-3-[(2-hydroxyethyl)amino]propyl}oxy)phenyl]cyclopropyl}amino)-2-oxopyrazin-1(2H)-yl]-4-methylbenzamide]
28 | 10.1 | CCNCCOc1ccccc1C(C)(C)Nc1nccn(-c2cc(C(=O)NC3CC3)cc(F)c2C)c1=O [Example 252, N-Cyclopropyl-3-[3-[[1-[2-[2-(ethylamino)ethoxy]phenyl]-1-methylethyl]amino]-2-oxo-1(2H)-pyrazinyl]-5-fluoro-4-methyl-benzamide]
29 | 10.1 | Cc1c(F)cc(C(=O)NC2CC2)cc1-n1ccnc(NC(C)(C)c2ccccc2OCCN)c1=O [Example 311, 3-[3-({1-[2-(2-Aminoethoxy)phenyl]-1-methylethyl}amino)-2-oxopyrazin-1(2H)-yl]-N-cyclopropyl-5-fluoro-4-methylbenzamide]
30 | 10.4 | CNCCOc1ccc(F)cc1C1(Nc2nccn(-c3cc(C(=O)NC4CC4)cc(F)c3C)c2=O)CC1 [Example 281, N-Cyclopropyl-3-fluoro-5-{3-[(1-{5-fluoro-2-[2-(methylamino)ethoxy]phenyl}cyclopropyl)amino]-2-oxopyrazin-1(2H)-yl}-4-methylbenzamide]
31 | 9 | Cc1c(F)cc(C(=O)NC2CC2)cc1-n1ccnc(N[C@@H](c2ccccc2)[C@@H](C)CN2CCCC2)c1=O [Example 328, N-Cyclopropyl-3-fluoro-4-methyl-5-[3-{[(1R,2S)-2-methyl-1-phenyl-3-pyrrolidin-1-ylpropyl]amino}-2-oxopyrazin-1(2H)-yl]benzamide]
